Measurements taken from patent US10669283B2, “Compound and pharmacologically acceptable salt thereof” (MEIJI SEIKA PHARMA CO., LTD., priority 2016, dated 2020).

Test system: PDE4
Assay: PDE4 inhibition, scintillation proximity assay (SPA);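 further: A below 100 nM B 100 to below 1000 nM C 1000 nM or more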
Assay type: biochemical
Conditions: scintillation proximity assay (SPA); evaluated as classes A, B, C; read-out: PDE4 Inhibitory Activity (concentration for the inhibition rate of 50%)
In short: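 Compound pre-diluted 1:10 in 50 mM Tris-HCl pH 7.4, 8.3 mM MgCl2, 1.7 mM EGTA, 3 mg/mL BSA, then incubated with PDE4 and [2,8-3H]-cAMP for 120 min at room temperature. Product captured on ZnSO4-containing YSi-SPA beads for 15 min; radioactivity counted against no-enzyme blank and DMSO control.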

Compound	IC50 [µM]
CC(C)(O)C(F)(F)OC(c1ccc(-c2nccs2)c2oc(N3CC4CC(C3)N4)nc12)C(F)(F)F (stereo not drawn) [Example 257, 1-(1-(2-(3,6-Diazabicyclo[3.1.1]heptan-3-yl)-7-(thiazol-2-yl)benzo[d]oxazol-4-yl)-2,2,2-trifluoroethoxy)-1,1-difluoro-2-methylpropan-2-ol]	< 0.1
OCC(F)(F)OC(c1ccc(-c2nccs2)c2oc(N3CC4CC(C3)N4)nc12)C(F)(F)F (stereo not drawn) [Example 258, 2-(1-(2-(3,6-Diazabicyclo[3.1.1]heptan-3-yl)-7-(thiazol-2-yl)benzo[d]oxazol-4-yl)-2,2,2-trifluoroethoxy)-2,2-difluoroethan-1-ol]	< 0.1
C[C@H](O)COc1ccc(-c2nccs2)c2oc(N3CC4CC(C3)N4)nc12 [Example 260, (2S)-1-((2-(3,6-diazabicyclo[3.1.1]heptan-3-yl)-7-(thiazol-2-yl)benzo[d]oxazol-4-yl)oxy)propan-2-ol]	< 0.1
CC(O)COC(c1ccc(-c2nccs2)c2oc(N3CC4CC(C3)N4)nc12)C(F)(F)F (stereo not drawn) [Example 261, 1-(1-(2-(3,6-Diazabicyclo[3.1.1]heptan-3-yl)-7-(thiazol-2-yl)benzo[d]oxazol-4-yl)-2,2,2-trifluoroethoxy)propan-2-ol]	< 0.1
c1csc(-c2ccc(OC3CCCOC3)c3nc(N4CC5CCC(C4)N5)oc23)n1 (stereo not drawn) [Example 262, 2-(3,8-Diazabicyclo[3.2.1]octan-3-yl)-4-((tetrahydro-2H-pyran-3-yl)oxy)-7-(thiazol-2-yl)benzo[d]oxazole]	< 0.1
FC(F)Oc1ccc(-c2nccs2)c2oc(N3CC4CCC(C3)N4)nc12 [Example 263, 2-(3,8-Diazabicyclo[3.2.1]octan-3-yl)-4-(difluoromethoxy)-7-(thiazol-2-yl)benzo[d]oxazole]	< 0.1
CC(C)(O)COc1ccc(-c2nccs2)c2oc(N3CC4CCC(C3)N4)nc12 [Example 264, 1-((2-(3,8-Diazabicyclo[3.2.1]octan-3-yl)-7-(thiazol-2-yl)benzo[d]oxazol-4-yl)oxy)-2-methylpropan-2-ol]	< 0.1
CC(O)C(F)(F)OC(c1ccc(-c2nccs2)c2oc(N3CC4CC(C3)N4)nc12)C(F)(F)F (stereo not drawn) [Example 265, 1-(1-(2-(3,6-Diazabicyclo[3.1.1]heptan-3-yl)-7-(thiazol-2-yl)benzo[d]oxazol-4-yl)-2,2,2-trifluoroethoxy)-1,1-difluoropropan-2-ol]	< 0.1
N#CC1CC(Oc2ccc(-c3nccs3)c3oc(N4CC5CC(C4)N5)nc23)C1 (stereo not drawn) [Example 266, 3-((2-(3,6-Diazabicyclo[3.1.1]heptan-3-yl)-7-(thiazol-2-yl)benzo[d]oxazol-4-yl)oxy)cyclobutane-1-carbonitrile]	< 0.1
CC(C)(O)C1CC(Oc2ccc(-c3nccs3)c3oc(N4CC5CC(C4)N5)nc23)C1 (stereo not drawn) [Example 267, 2-(3-((2-(3,6-Diazabicyclo[3.1.1]heptan-3-yl)-7-(thiazol-2-yl)benzo[d]oxazol-4-yl)oxy)cyclobutyl)propan-2-ol]	< 0.1
CC(C)(CO)Oc1ccc(-c2nccs2)c2oc(N3CC4CC(C3)N4)nc12 [Example 268, 2-((2-(3,6-Diazabicyclo[3.1.1]heptan-3-yl)-7-(thiazol-2-yl)benzo[d]oxazol-4-yl)oxy)-2-methylpropan-1-ol]	< 0.1
OC1(c2cc(-c3nccs3)c3oc(N4CC5CC(C4)N5)nc3c2OC(F)(F)F)CC1 [Example 269, 1-(2-(3,6-Diazabicyclo[3.1.1]heptan-3-yl)-7-(thiazol-2-yl)-4-(trifluoromethoxy)benzo[d]oxazol-5-yl)cyclopropan-1-ol]	< 0.1
CC(O)(c1ccc(-c2nccs2)c2oc(N3CC4CC(C3)N4)nc12)C(F)(F)F (stereo not drawn) [Example 270, 2-(2-(3,6-Diazabicyclo[3.1.1]heptan-3-yl)-7-(thiazol-2-yl)benzo[d]oxazol-4-yl)-1,1,1-trifluoropropan-2-ol]	< 0.1
CC(O)(c1ccc(-c2nccs2)c2oc(N3CC4CC(C3)N4)nc12)C(F)(F)F (stereo not drawn) [Example 271, 2-(2-(3,6-Diazabicyclo[3.1.1]heptan-3-yl)-7-(thiazol-2-yl)benzo[d]oxazol-4-yl)-1,1,1-trifluoropropan-2-ol]	< 0.1
CC(O)c1cc(-c2nccs2)c2oc(N3CC4CC(C3)N4)nc2c1OC(F)(F)F (stereo not drawn) [Example 272, 1-(2-(3,6-Diazabicyclo[3.1.1]heptan-3-yl)-7-(thiazol-2-yl)-4-(trifluoromethoxy)benzo[d]oxazol-5-yl)ethan-1-ol]	< 0.1
CC(O)c1cc(-c2nccs2)c2oc(N3CC4CC(C3)N4)nc2c1OC(F)(F)F (stereo not drawn) [Example 273, 1-(2-(3,6-Diazabicyclo[3.1.1]heptan-3-yl)-7-(thiazol-2-yl)-4-(trifluoromethoxy)benzo[d]oxazol-5-yl)ethan-1-ol]	< 0.1
OC1(c2cc(-c3nccs3)c3oc(N4CC5CCC(C4)N5)nc3c2OC(F)(F)F)CC1 [Example 274, 1-(2-(3,8-Diazabicyclo[3.2.1]octan-3-yl)-7-(thiazol-2-yl)-4-(trifluoromethoxy)benzo[d]oxazol-5-yl)cyclopropan-1-ol]	< 0.1

Compound	IC50 [µM]
OC(c1cc(-c2nccs2)c2oc(N3CC4CCC(C3)N4)nc2c1OC(F)(F)F)C(F)F (stereo not drawn) [Example 275, 1-(2-(3,8-Diazabicyclo[3.2.1]octan-3-yl)-7-(thiazol-2-yl)-4-(trifluoromethoxy)benzo[d]oxazol-5-yl)-2,2-difluoroethan-1-ol]	< 0.1
OC(c1cc(-c2nccs2)c2oc(N3CC4CCC(C3)N4)nc2c1OC(F)(F)F)C(F)F (stereo not drawn) [Example 276, 1-(2-(3,8-Diazabicyclo[3.2.1]octan-3-yl)-7-(thiazol-2-yl)-4-(trifluoromethoxy)benzo[d]oxazol-5-yl)-2,2-difluoroethan-1-ol]	< 0.1
OC(COc1ccc(-c2nccs2)c2oc(N3CC4CC(C3)N4)nc12)C(F)(F)F (stereo not drawn) [Example 277, 3-((2-(3,6-Diazabicyclo[3.1.1]heptan-3-yl)-7-(thiazol-2-yl)benzo[d]oxazol-4-yl)oxy)-1,1,1-trifluoropropan-2-ol]	< 0.1
FC(F)Oc1ccc(-c2nccs2)c2oc(N3CC4CC(C3)N4)nc12 [Example 278, 2-(3,6-Diazabicyclo[3.1.1]heptan-3-yl)-4-(difluoromethoxy)-7-(thiazol-2-yl)benzo[d]oxazole]	< 0.1
CC(C)(O)COc1ccc(-c2nccs2)c2oc(N3CC4CC(C3)N4)nc12 [Example 279, 1-((2-(3,6-Diazabicyclo[3.1.1]heptan-3-yl)-7-(thiazol-2-yl)benzo[d]oxazol-4-yl)oxy)-2-methylpropan-2-ol]	< 0.1
CC(C)(O)C(C)(C)OC(c1ccc(-c2nccs2)c2oc(N3CC4CC(C3)N4)nc12)C(F)(F)F (stereo not drawn) [Example 280, 3-(1-(2-(3,6-Diazabicyclo[3.1.1]heptan-3-yl)-7-(thiazol-2-yl)benzo[d]oxazol-4-yl)-2,2,2-trifluoroethoxy)-2,3-dimethylbutan-2-ol]	< 0.1
COC(C)(C)COC(c1ccc(-c2nccs2)c2oc(N3CC4CC(C3)N4)nc12)C(F)(F)F (stereo not drawn) [Example 281, 2-(3,6-Diazabicyclo[3.1.1]heptan-3-yl)-7-(thiazol-2-yl)-4-(2,2,2-trifluoro-1-(2-methoxy-2-methylpropoxy)ethyl)benzo[d]oxazole]	< 0.1
COC1(COC(c2ccc(-c3nccs3)c3oc(N4CC5CC(C4)N5)nc23)C(F)(F)F)CC1 (stereo not drawn) [Example 282, 2-(3,6-Diazabicyclo[3.1.1]heptan-3-yl)-7-(thiazol-2-yl)-4-(2,2,2-trifluoro-1-((1-methoxycyclopropyl)methoxy)ethyl)benzo[d]oxazole]	< 0.1
COC1(c2cc(-c3nccs3)c3oc(N4CC5CC(C4)N5)nc3c2OC(F)(F)F)CC1 [Example 283, 2-(3,6-Diazabicyclo[3.1.1]heptan-3-yl)-5-(1-methoxycyclopropyl)-7-(thiazol-2-yl)-4-(trifluoromethoxy)benzo[d]oxazole]	< 0.1
CC(C)(O)COC(c1ccc(-c2cscn2)c2oc(N3CC4CC(C3)N4)nc12)C(F)(F)F (stereo not drawn) [Example 284, 1-(1-(2-(3,6-Diazabicyclo[3.1.1]heptan-3-yl)-7-(thiazol-4-yl)benzo[d]oxazol-4-yl)-2,2,2-trifluoroethoxy)-2-methylpropan-2-ol]	< 0.1
OC1(COC(c2ccc(-c3cscn3)c3oc(N4CC5CC(C4)N5)nc23)C(F)(F)F)CC1 (stereo not drawn) [Example 286, 1-((1-(2-(3,6-Diazabicyclo[3.1.1]heptan-3-yl)-7-(thiazol-4-yl)benzo[d]oxazol-4-yl)-2,2,2-trifluoroethoxy)methyl)cyclopropan-1-ol]	< 0.1
COC(C)(C)c1cc(-c2cscn2)c2oc(N3CC4CC(C3)N4)nc2c1OC(F)(F)F [Example 287, 2-(3,6-Diazabicyclo[3.1.1]heptan-3-yl)-5-(2-methoxypropan-2-yl)-7-(thiazol-4-yl)-4-(trifluoromethoxy)benzo[d]oxazole]	< 0.1
CC(C)(O)c1cc(-c2cscn2)c2oc(N3CC4CC(C3)N4)nc2c1OC(F)(F)F [Example 288, 2-(2-(3,6-Diazabicyclo[3.1.1]heptan-3-yl)-7-(thiazol-4-yl)-4-(trifluoromethoxy)benzo[d]oxazol-5-yl)propan-2-ol]	< 0.1
CC(C)(O)C(F)(F)Oc1ccc(-c2ccccn2)c2oc(N3CC4CC(C3)N4)nc12 [Example 289, 1-((2-(3,6-Diazabicyclo[3.1.1]heptan-3-yl)-7-(pyridin-2-yl)benzo[d]oxazol-4-yl)oxy)-1,1-difluoro-2-methylpropan-2-ol]	< 0.1
CC(C)(O)C(F)(F)Oc1ccc(-c2ncco2)c2oc(N3CC4CC(C3)N4)nc12 [Example 290, 1-((2-(3,6-Diazabicyclo[3.1.1]heptan-3-yl)-7-(oxazol-2-yl)benzo[d]oxazol-4-yl)oxy)-1,1-difluoro-2-methylpropan-2-ol]	< 0.1
CC(C)(O)c1cc(-c2cscn2)c2oc(N3CC4CCC(C3)N4)nc2c1OC(F)(F)F [Example 291, 2-(2-(3,8-Diazabicyclo[3.2.1]octan-3-yl)-7-(thiazol-4-yl)-4-(trifluoromethoxy)benzo[d]oxazol-5-yl)propan-2-ol]	< 0.1
